How the values were obtained:
[1] = Metabolic stability HLM; assay type: in vitro ADME, human
[2] = system: DLD1 cells; assay: Cell proliferation assay (MTT), DLD1; conditions: CRC cell line, FIG. 8D
[3] = system: KNS62; assay: KNS62 growth inhibition (SAR tables); assay type: cell-based
[4] = system: DLD1 cells; assay: Drug combination matrix TM2 + Trametinib, DLD1; assay type: cell-based, Human; conditions: 5 doses TM2 x 9 doses trametinib, day 5, Bliss, FIG. 8E
Protocol: The drug combination experiments were preformed using a drug combination matrix across 5 doses of TM2 (5 μM, 3-fold dilution) and 9 doses of Trametinib (10 μM, 3-fold dilution) in different tumor cell lines. Cell viability was determined at day 5 after the drugs administration by MTT. Drug synergy score was calculated followed Bliss rule. Synergy Score and Plot was generated by “Synergyfinder” package in R language.

[5] = system: H226; assay: H226 growth inhibition (SAR tables); assay type: cell-based; conditions: Homo sapiens, NCI-H226
[6] = biological target: DHODH(H) (Homo sapiens, UniProt Q02127); assay: DHODH(H) (Table F1); conditions: three values in one cell
Sequence of DHODH(H) (Q02127 whole entry): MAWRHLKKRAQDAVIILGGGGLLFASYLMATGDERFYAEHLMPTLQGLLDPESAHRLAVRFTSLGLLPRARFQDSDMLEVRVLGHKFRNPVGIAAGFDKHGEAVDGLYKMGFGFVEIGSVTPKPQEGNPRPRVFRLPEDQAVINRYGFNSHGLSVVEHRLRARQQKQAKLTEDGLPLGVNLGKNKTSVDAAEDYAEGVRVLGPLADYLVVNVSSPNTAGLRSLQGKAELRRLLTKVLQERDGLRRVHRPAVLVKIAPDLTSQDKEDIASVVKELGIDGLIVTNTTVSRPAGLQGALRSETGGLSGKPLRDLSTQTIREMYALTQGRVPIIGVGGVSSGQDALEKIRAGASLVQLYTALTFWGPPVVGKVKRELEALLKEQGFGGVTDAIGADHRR

[7] = biological target: association of YAP with endogenous TEAD1 and pan-TEAD (Homo sapiens, UniProt P28347); assay: YAP co-immunoprecipitation (Co-IP) assay in H226 cells; assay type: cell-based; conditions: H226, 24 h, dose-dependent, FIG. 5A
Sequence of association of YAP with endogenous TEAD1 and pan-TEAD (P28347 whole entry): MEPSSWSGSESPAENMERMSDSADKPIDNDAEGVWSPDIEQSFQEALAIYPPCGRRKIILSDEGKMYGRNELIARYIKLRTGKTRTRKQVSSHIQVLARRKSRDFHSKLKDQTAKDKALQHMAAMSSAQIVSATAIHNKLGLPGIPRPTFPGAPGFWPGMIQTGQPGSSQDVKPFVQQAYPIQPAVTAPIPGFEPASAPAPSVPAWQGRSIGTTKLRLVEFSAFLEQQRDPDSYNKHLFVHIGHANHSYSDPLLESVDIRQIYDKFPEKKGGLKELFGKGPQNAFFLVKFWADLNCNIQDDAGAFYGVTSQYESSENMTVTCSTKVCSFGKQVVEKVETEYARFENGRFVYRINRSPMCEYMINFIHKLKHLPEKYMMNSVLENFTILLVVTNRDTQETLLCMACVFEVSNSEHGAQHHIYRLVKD
Protocol: H226 cells were treated with DMSO or TM2 for 24 h. The cells were then washed and harvested by cold DPBS. The cell pellets were isolated by centrifugation (500×g, 10 min) and lysed by lysis buffer (50 mM Tris-HCl pH 7.5, 10% Glycerol, 1% NP-40, 300 mM NaCl, 150 mM KCl, 5 mM EDTA, phosphatase inhibitor cocktail, complete EDTA-free protease inhibitors cocktail) on ice. After dilution with 50 mM Tris-HCl pH 7.5, 10% Glycerol, 1% NP-40, 5 mM EDTA, the protein samples were incubated with mouse anti-YAP antibody (sc-101199, Santa Cruz) overnight at 4° C. and immunoprecipitated with prewashed protein A/G beads (P5030-1, UBPBio) for another 4 h at 4° C. The bound proteins were washed with 0.1% PBST for three times and eluted with 1×SDS loading buffer and analyzed with SDS-PAGE. Anti-TEAD1 (1:1000, 12292S, Cell Signaling), anti-pan-TEAD (1:1000, 13295, Cell Signaling) or anti-YAP (1:1000, 140745, Cell Signaling) antibody were used to detect TEAD1, pan-TEAD or YAP, respectively. Secondary antibody was anti-rabbit (1:5000, 7074S, Cell Signaling).

[8] = system: HCT116 cells; assay: Cell proliferation assay (MTT), HCT116; conditions: CRC cell line, FIG. 8D
[9] = Metabolic stability MLM; conditions: % parent remained per Table G2
[10] = system: H226 cells; assay: Cell proliferation assay (MTT), H226; conditions: Homo sapiens, NCI-H226, 144 h, read-out: IC50 H226 cell proliferation
[11] = biological target: TEAD2 (Homo sapiens, UniProt Q15562); assay: Inhibition of TEAD2 auto-palmitoylation in vitro; conditions: FIG. 1; 0.05 and 0.5 μM for 30 mins
Sequence of TEAD2 (Q15562 whole entry): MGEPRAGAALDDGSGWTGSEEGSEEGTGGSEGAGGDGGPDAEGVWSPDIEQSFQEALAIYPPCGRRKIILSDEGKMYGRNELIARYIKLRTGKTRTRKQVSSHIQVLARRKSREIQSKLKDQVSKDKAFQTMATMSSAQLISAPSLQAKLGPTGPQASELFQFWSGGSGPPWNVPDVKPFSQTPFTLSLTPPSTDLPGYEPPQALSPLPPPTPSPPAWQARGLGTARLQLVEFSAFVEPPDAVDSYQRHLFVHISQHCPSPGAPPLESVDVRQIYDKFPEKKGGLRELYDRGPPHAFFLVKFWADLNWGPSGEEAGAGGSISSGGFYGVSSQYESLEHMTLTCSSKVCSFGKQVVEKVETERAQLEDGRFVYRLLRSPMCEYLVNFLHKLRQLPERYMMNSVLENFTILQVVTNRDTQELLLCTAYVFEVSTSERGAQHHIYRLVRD

[12] = system: NCI-H28 cells; assay: Cell proliferation assay (MTT), NCI-H28; conditions: Homo sapiens, NCI-H28, read-out: IC50 NCI-H28 cell proliferation
[13] = system: PDL1 expression; assay: PDL1 expression in cancer cell lines; assay type: cell-based
[14] = system: NCI-H2052 cells; assay: Cell proliferation assay (MTT), NCI-H2052; conditions: Homo sapiens, NCI-H2052, read-out: IC50 NCI-H2052 cell proliferation
[15] = system: endogenous TEAD1-4 (pan-TEAD); assay: Inhibition of endogenous pan-TEAD palmitoylation in HEK293A cells; assay type: cell-based
Protocol: HEK293A cells with or without TEAD overexpression were pretreated with DMSO or TM2 in medium with 10% dialyzed fetal bovine serum (DFBS) for 8 h and labeled by Alkynyl Palmitic acid (1165, Click Chemistry Tools) for another 16 h. The cells were then washed and harvested by cold DPBS (14190250, Life Technologies). The cell pellets were isolated by centrifugation (500×g, 10 min) and lysed by TEA lysis buffer (50 mM TEA-HCl, pH 7.4, 150 mM NaCl, 1% Triton X-100, 0.2% SDS, 1×Protease inhibitor-EDTA free cocktail (05892791001, Roche), phosphatase inhibitor cocktail (P0044, Sigma-Aldrich)) on ice for 30 mins. The protein concentration was determined using Bio-Rad assay and adjusted to 1 mg/mL. 100 μL of protein sample mixture was treated with 10 μL of freshly prepared “click” mixture containing 1 mM TBTA, 10 mM TCEP, 10 mM CuSO4, 1 mM TBTA Biotin-Azide and incubated for 1 h at room temperature. The proteins were precipitated by chloroform/methanol/H20 mixture and redissolved with 2% SDS in 0.1% PBST. The solution was diluted with 0.1% PBST and incubated with prewashed streptavidin agarose beads (69203-3, E M D MILLIPORE). After rotation at room temperature for 2 h, the beads were then pelleted by centrifugation (500×g, 3 min) and washed with 0.2% SDS in PBS (3×1 mL). The bound proteins were eluted with a buffer containing 10 mM EDTA pH 8.2 and 95% formamide and analyzed with SDS-PAGE. […]

Met stab HLM, 15 min ([1]; 15 min): 44%
Met stab HLM, 60 min ([1]; 60 min): 6%
GI50 [5]: 73 nM
DHODH(H):(GI50 μM/1,10 μM) [6]: 5/6/15
association of YAP with endogenous TEAD1 and pan-TEAD (in words) [7]: dramatically blocked
Met stab MLM, 15 min ([9]; 15 min): 36%
Met stab MLM, 60 min ([9]; 60 min): 4%
IC50 [10]: 26 nM
inhibition of TEAD2 auto-palmitoylation (in words) [11]: most potent compound
IC50 [12]: > 5000 nM
IC50 [14]: 157 nM
SMILES: O=C(Nc1ccccc1)N1CCN(C(=O)c2cccc(OCCC3CCCCC3)c2)CC1 [TM2, 4-(3-(2-cyclohexylethoxy)benzoyl)-N-phenylpiperazine-1-carboxamide]
inhibition of DLD1 cell proliferation (in words) [2]: did not exhibit strong inhibition
KNS62: value at 1 μM ([3]; 1 μM): 37
KNS62: value at 10 μM ([3]; 10 μM): 28
combination with MEK inhibitor trametinib, DLD1 (in words) [4]: strong inhibitory effects and substantial synergy
inhibition of HCT116 cell proliferation (in words) [8]: did not exhibit strong inhibition
PDL1 expression in cancer cell lines (in words) [13]: inhibits PDL1 expression
Pan-TEAD palmitoylation at 100 nM (in words) ([15]; 100 nM): diminished
endogenous TEAD1-4 (pan-TEAD) palmitoylation (in words) ([15]; HEK293A, 24 h, FIG. 2D): significantly inhibits
